In US20230265151A1, “GIP/GLP1 CO-AGONIST COMPOUNDS” (priority 2020, published 2023):
Like-named read-outs stand apart in the source and are kept apart here. *1 amine or outer side, *2 acyl side, *3 side chain or, on linkers, in order; H or OH if unused. Where a SMILES comes first, the peptide text is derived from it. Side-chain parts run from the residue outwards. [ ]: non-standard residue; d: D form. The star is where a group is joined. αMePhe(2-F) = C[C@](N)(Cc1ccccc1F)C(=O)O; γGlu = O=C(O)[C@H](CCC(=O)[*:2])N[*:1]; C14 diacid = O=C(O)CCCCCCCCCCCCC(=O)*; αMeY = C[C@](N)(Cc1ccc(O)cc1)C(=O)O; αMeL = CC(C)C[C@](C)(N)C(=O)O; Orn = NCCC[C@H](N)C(=O)O; AEEA = NCCOCCOCC(=O)O; Aib = CC(C)(N)C(=O)O

Key:
Type in all cases: cell-based
hGIPR = molecular target: T1, hGIPR (Homo sapiens, UniProt P48546); assay: Functional cAMP formation (HTRF) in HEK-293 clonal cells expressing hGIPR, 0.1% bovine casein, without or with 1.0% human serum albumin; conditions: for EC50: cAMP, 0.1% bovine casein (no human serum albumin), geometric mean; for Emax: percent of maximal response to GIP(1-42)NH2
T1 construct: expressed in transfected cells
T1 sequence (P48546 22-466): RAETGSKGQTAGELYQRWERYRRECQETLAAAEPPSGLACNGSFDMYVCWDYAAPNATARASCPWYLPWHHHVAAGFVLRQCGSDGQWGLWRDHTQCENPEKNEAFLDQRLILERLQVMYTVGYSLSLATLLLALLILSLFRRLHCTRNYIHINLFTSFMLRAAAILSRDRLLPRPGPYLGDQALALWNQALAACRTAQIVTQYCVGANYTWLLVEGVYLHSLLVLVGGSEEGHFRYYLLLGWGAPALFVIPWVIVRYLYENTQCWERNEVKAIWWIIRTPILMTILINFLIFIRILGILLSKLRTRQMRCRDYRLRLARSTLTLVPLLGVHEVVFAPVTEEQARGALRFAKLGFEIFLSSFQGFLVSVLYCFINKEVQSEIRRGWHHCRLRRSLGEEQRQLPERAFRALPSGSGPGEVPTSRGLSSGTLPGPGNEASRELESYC
Procedure, shortened: (§1)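 Cells were stimulated with peptide for 30 min at 37° C, then lysed in buffer carrying cAMP-d2 and anti-cAMP Eu3+-cryptate for a competitive HTRF read after at least 60 min at room temperature. The 665/620 nm ratio was converted to nM cAMP against a standard curve.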

hGCGR = molecular target: T2, hGCGR (Homo sapiens, UniProt P47871); assay: Functional cAMP formation (HTRF) in HEK-293 clonal cells expressing hGCGR, 0.1% bovine casein, without or with 1.0% human serum albumin; conditions: cAMP, 37° C.
T2 construct: expressed in transfected cells
T2 sequence (P47871 26-477): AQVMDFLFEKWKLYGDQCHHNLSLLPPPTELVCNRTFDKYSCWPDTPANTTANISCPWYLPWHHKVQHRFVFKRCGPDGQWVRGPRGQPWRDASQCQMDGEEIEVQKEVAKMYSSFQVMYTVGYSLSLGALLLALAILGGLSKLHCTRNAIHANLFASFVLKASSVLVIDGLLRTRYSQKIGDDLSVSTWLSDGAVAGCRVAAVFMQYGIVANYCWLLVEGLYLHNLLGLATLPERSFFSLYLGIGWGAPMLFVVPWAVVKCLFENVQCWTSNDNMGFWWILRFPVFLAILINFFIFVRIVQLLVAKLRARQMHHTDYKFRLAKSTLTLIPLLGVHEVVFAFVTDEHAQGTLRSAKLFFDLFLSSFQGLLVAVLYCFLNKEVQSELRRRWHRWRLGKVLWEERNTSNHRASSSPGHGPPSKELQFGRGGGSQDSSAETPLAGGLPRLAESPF
Procedure, shortened: as §1

hGLP-1R = hGLP-1R (Homo sapiens, UniProt P43220); assay: Functional cAMP formation (HTRF) in HEK-293 clonal cells expressing hGLP-1R, 0.1% bovine casein, without or with 1.0% human serum albumin; design: expressed in transfected cells; conditions: 37° C.; for EC50: cAMP, 0.1% bovine casein (no human serum albumin), geometric mean; for Emax: HEK293, cAMP, 0.1% bovine casein, percent of maximal response to GLP-1(7-36)NH2, arithmetic mean, read-out: hGLP-1R Emax, % ± SEM
Chain of hGLP-1R (P43220 24-463): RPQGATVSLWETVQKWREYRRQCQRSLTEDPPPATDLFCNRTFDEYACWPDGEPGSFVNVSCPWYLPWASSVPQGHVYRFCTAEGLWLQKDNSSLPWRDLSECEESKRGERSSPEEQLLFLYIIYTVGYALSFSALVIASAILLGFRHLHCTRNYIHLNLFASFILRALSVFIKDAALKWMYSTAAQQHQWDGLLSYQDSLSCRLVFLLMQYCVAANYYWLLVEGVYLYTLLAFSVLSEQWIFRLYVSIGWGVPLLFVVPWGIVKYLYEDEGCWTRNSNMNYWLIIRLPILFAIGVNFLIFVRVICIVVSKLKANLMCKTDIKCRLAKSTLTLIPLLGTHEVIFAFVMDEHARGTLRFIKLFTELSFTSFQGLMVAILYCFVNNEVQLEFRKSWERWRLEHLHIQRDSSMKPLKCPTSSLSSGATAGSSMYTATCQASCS
Procedure, shortened: as §1

[1] = 37° C., read-out: hGIPR EC50, nM (SEM, n)
[2] = 0.1% bovine casein (no human serum albumin), geometric mean, read-out: hGCGR EC50, nM (SEM, n)
[3] = read-out: hGLP-1R EC50, nM (SEM, n)

SMILES | EC50 (hGIPR; [1]) [nM] | EC50 (hGCGR; [2]) [nM] | EC50 (hGLP-1R; [3]) [nM] | Emax (hGIPR; HEK293, cAMP, 37° C., 0.1% bovine casein, arithmetic mean, read-out: hGIPR Emax, % ± SEM) [%] | Emax (hGLP-1R) [%] | Emax (hGIPR; HEK293, read-out: hGIPR Emax, % ± SEM, cAMP, 37° C., 0.1% bovine casein and 1.0% human serum albumin) [%] | Emax (hGIPR; HEK293, read-out: hGIPR Emax, % ± SEM, cAMP, 37° C., 0.1% bovine casein, arithmetic mean) [%] | EC50 (hGIPR; hGIPR EC50, nM (SEM, n), 37° C.) [nM] | EC50 (hGCGR; hGCGR EC50, nM (SEM, n), 0.1% bovine casein (no human serum albumin), geometric mean) [nM] | EC50 (hGCGR; hGCGR EC50, nM (SEM, n), 0.1% bovine casein and 1.0% human serum albumin, geometric mean (SEM, n)) [nM] | EC50 (hGLP-1R; hGLP-1R EC50, nM (SEM, n)) [nM]
CC[C@H](C)[C@H](NC(=O)[C@H](CCCN)NC(=O)[C@H](CC(=O)O)NC(=O)[C@H](CC(C)C)NC(=O)[C@](C)(CC(C)C)NC(=O)[C@@H](NC(=O)C(C)(C)NC(=O)[C@H](Cc1ccc(O)cc1)NC(=O)[C@H](CC(=O)O)NC(=O)[C@H](CO)NC(=O)[C@@H](NC(=O)[C@](C)(Cc1ccccc1F)NC(=O)[C@@H](NC(=O)CNC(=O)[C@H](CCC(=O)O)NC(=O)C(C)(C)NC(=O)[C@@H](N)Cc1ccc(O)cc1)[C@@H](C)O)[C@@H](C)O)[C@@H](C)CC)C(=O)N[C@@H](C)C(=O)N[C@@H](CCC(N)=O)C(=O)NC(C)(C)C(=O)N[C@@H](CCC(=O)O)C(=O)N[C@@H](Cc1ccccc1)C(=O)N[C@H](C(=O)N[C@@H](CCCCNC(=O)COCCOCCNC(=O)CC[C@H](NC(=O)CCCCCCCCCCCCC(=O)O)C(=O)O)C(=O)N[C@@](C)(Cc1ccc(O)cc1)C(=O)N[C@@H](CC(C)C)C(=O)N[C@H](C(=O)N[C@@H](CCCCNC(=O)COCCOCCNC(=O)CC[C@H](NC(=O)CCCCCCCCCCCCC(=O)O)C(=O)O)C(=O)NCC(=O)NCC(=O)N1CCC[C@H]1C(=O)N[C@@H](CO)C(=O)N[C@@H](CO)C(=O)NCC(=O)N[C@@H](C)C(=O)N1CCC[C@H]1C(=O)N1CCC[C@H]1C(=O)N1CCC[C@H]1C(=O)N[C@@H](CO)C(N)=O)[C@@H](C)CC)[C@@H](C)CC [Example 369] | 0.037 | > 9950 | 0.555 | – | – | – | – | – | – | – | –
CC[C@H](C)[C@H](NC(=O)[C@H](CCCN)NC(=O)[C@H](CC(=O)O)NC(=O)[C@H](CC(C)C)NC(=O)[C@](C)(CC(C)C)NC(=O)[C@@H](NC(=O)C(C)(C)NC(=O)[C@H](Cc1ccc(O)cc1)NC(=O)[C@H](CC(=O)O)NC(=O)[C@H](CO)NC(=O)[C@@H](NC(=O)[C@](C)(Cc1ccccc1F)NC(=O)[C@@H](NC(=O)CNC(=O)[C@H](CCC(=O)O)NC(=O)C(C)(C)NC(=O)[C@@H](N)Cc1ccc(O)cc1)[C@@H](C)O)[C@@H](C)O)[C@@H](C)CC)C(=O)N[C@@H](C)C(=O)N[C@@H](CCC(N)=O)C(=O)NC(C)(C)C(=O)N[C@@H](CCCCNC(=O)COCCOCCNC(=O)CC[C@H](NC(=O)CCCCCCCCCCCCC(=O)O)C(=O)O)C(=O)N[C@@H](Cc1ccccc1)C(=O)N[C@H](C(=O)N[C@H](CCC(=O)O)C(=O)N[C@@](C)(Cc1ccc(O)cc1)C(=O)N[C@@H](CC(C)C)C(=O)N[C@H](C(=O)N[C@@H](CCCCNC(=O)COCCOCCNC(=O)CC[C@H](NC(=O)CCCCCCCCCCCCC(=O)O)C(=O)O)C(=O)NCC(=O)NCC(=O)N1CCC[C@H]1C(=O)N[C@@H](CO)C(=O)N[C@@H](CO)C(=O)NCC(=O)N[C@@H](C)C(=O)N1CCC[C@H]1C(=O)N1CCC[C@H]1C(=O)N1CCC[C@H]1C(=O)N[C@@H](CO)C(N)=O)[C@@H](C)CC)[C@@H](C)CC [Example 370] (H-Y[Aib]EGT[αMePhe(2-F)]TSDY[Aib]I[αMeL]LD[Orn]IAQ[Aib]K([AEEA-γGlu-C14 diacid])FI[dE][αMeY]LIK([AEEA-γGlu-C14 diacid])GGPSSGAPPPS-NH2) | 0.0282 | > 9950 | 0.402 | 105 | 112 | – | – | – | – | – | –
CC[C@H](C)[C@H](NC(=O)[C@H](CCCN)NC(=O)[C@H](CC(=O)O)NC(=O)[C@H](CC(C)C)NC(=O)[C@](C)(CC(C)C)NC(=O)[C@@H](NC(=O)C(C)(C)NC(=O)[C@H](Cc1ccc(O)cc1)NC(=O)[C@H](CC(=O)O)NC(=O)[C@H](CO)NC(=O)[C@@H](NC(=O)[C@](C)(Cc1ccccc1F)NC(=O)[C@@H](NC(=O)CNC(=O)[C@H](CCC(=O)O)NC(=O)C(C)(C)NC(=O)[C@@H](N)Cc1ccc(O)cc1)[C@@H](C)O)[C@@H](C)O)[C@@H](C)CC)C(=O)N[C@@H](C)C(=O)N[C@@H](CCC(N)=O)C(=O)NC(C)(C)C(=O)N[C@@H](CCCCNC(=O)COCCOCCNC(=O)CC[C@H](NC(=O)CCCCCCCCCCCCC(=O)O)C(=O)O)C(=O)N[C@@H](Cc1ccccc1)C(=O)N[C@H](C(=O)N[C@H](CCC(=O)O)C(=O)N[C@@](C)(Cc1ccc(O)cc1)C(=O)N[C@@H](CC(C)C)C(=O)N[C@H](C(=O)N[C@@H](CCC(=O)O)C(=O)NCC(=O)NCC(=O)N1CCC[C@H]1C(=O)N[C@@H](CO)C(=O)N[C@@H](CO)C(=O)NCC(=O)N[C@@H](C)C(=O)N1CCC[C@H]1C(=O)N1CCC[C@H]1C(=O)N1CCC[C@H]1C(=O)N[C@@H](CO)C(=O)N[C@@H](CCCCNC(=O)COCCOCCNC(=O)CC[C@H](NC(=O)CCCCCCCCCCCCC(=O)O)C(=O)O)C(N)=O)[C@@H](C)CC)[C@@H](C)CC [Example 371] (H-Y[Aib]EGT[αMePhe(2-F)]TSDY[Aib]I[αMeL]LD[Orn]IAQ[Aib]K([AEEA-γGlu-C14 diacid])FI[dE][αMeY]LIEGGPSSGAPPPSK([AEEA-γGlu-C14 diacid])-NH2) | 0.0209 | > 9950 | 0.363 | – | 112 | – | – | – | – | – | –
CC[C@H](C)[C@H](NC(=O)[C@H](CC(C)C)NC(=O)[C@](C)(Cc1ccc(O)cc1)NC(=O)[C@@H](CCC(=O)O)NC(=O)[C@@H](NC(=O)[C@H](Cc1ccccc1)NC(=O)[C@H](CCCCNC(=O)COCCOCCNC(=O)CC[C@H](NC(=O)CCCCCCCCCOc1ccc(C(=O)O)cc1)C(=O)O)NC(=O)C(C)(C)NC(=O)[C@H](CCC(N)=O)NC(=O)[C@H](C)NC(=O)[C@H](CCCCNC(=O)COCCOCCNC(=O)CC[C@H](NC(=O)CCCCCCCCCOc1ccc(C(=O)O)cc1)C(=O)O)NC(=O)[C@H](CCCN)NC(=O)[C@H](CC(=O)O)NC(=O)[C@H](CC(C)C)NC(=O)[C@](C)(CC(C)C)NC(=O)[C@@H](NC(=O)C(C)(C)NC(=O)[C@H](Cc1ccc(O)cc1)NC(=O)[C@H](CC(=O)O)NC(=O)[C@H](CO)NC(=O)[C@@H](NC(=O)[C@](C)(Cc1ccccc1F)NC(=O)[C@@H](NC(=O)CNC(=O)[C@H](CCC(=O)O)NC(=O)C(C)(C)NC(=O)[C@@H](N)Cc1ccc(O)cc1)[C@@H](C)O)[C@@H](C)O)[C@@H](C)CC)[C@@H](C)CC)C(=O)N[C@@H](CCC(=O)O)C(=O)NCC(=O)NCC(=O)N1CCC[C@H]1C(=O)N[C@@H](CO)C(=O)N[C@@H](CO)C(=O)NCC(=O)N[C@@H](C)C(=O)N1CCC[C@H]1C(=O)N1CCC[C@H]1C(=O)N1CCC[C@H]1C(=O)N[C@@H](CO)C(N)=O [Example 372] | – | – | – | – | – | 90.6 | 97.3 | 0.0112 | > 9950 | > 9950 | 0.291
